Measured values taken from ChEMBL document CHEMBL5537149, “Design, synthesis, and lead optimization of piperazinyl-pyrimidine analogues as potent small molecules targeting the viral capping machinery of Chikungunya virus” (Eur J Med Chem, 2024).
Values after ≈ are worked out from the molar mass of the structure shown. Active and inactive are the calls of the source. No cut-off for these calls is given here.

How the values were obtained:
[1] = tested on: Chikungunya virus; experiment: Antiviral activity against Chikungunya virus infected in African green monkey Vero cells assessed as reduction in viral induced cell death incubated for 5 days by MTS reagent based absorbance method; assay type: functional, organism-based; details: 120 h
[2] = Cytotoxicity against African green monkey Vero cells assessed as reduction in overall metabolic activity incubated for 5 days by MTS reagent based absorbance method; assay type: toxicity, cell-based; details: chlorocebus sabaeus, time 5 day
[3] = Selectivity index, ratio of CC50 for cytotoxicity against African green monkey Vero cells to EC50 for antiviral activity against Chikungunya virus infected in African green monkey Vero cells assessed as reduction in viral induced cell death; assay type: toxicity, cell-based; details: read-out: Ratio CC50/EC50
[4] = Metabolic stability in human liver microsomes assessed as half-life preincubated for 5 mins followed by NADPH addition and measured upto 60 mins by HPLC-MS/MS analysis; assay type: ADME, Microsome; details: time < 65 min
[5] = Aqueous solubility of compound at pH 7.4 by HPLC analysis; assay type: physicochemical
[6] = tested on: Caco-2; experiment: Cytotoxicity against human Caco-2 cells incubated for 24 to 72 hrs by MTT assay; assay type: toxicity, cell-based; details: time 24-72 hrs
[7] = tested on: Chikungunya virus; experiment: Antiviral activity against Chikungunya virus 899 infected in African green monkey Vero cells assessed as reduction in viral RNA replication preincubated for 2 hrs with subsequent viral infected followed by media replacement with compound and measured after 48 hrs by qRT-PCR analysis; assay type: functional, organism-based; details: dose 0.25-60 µM, time 50.0 hrs
[8] = tested on: Chikungunya virus; experiment: Fold resistance , ratio of EC50 for antiviral activity against CHVB-resistant Chikungunya virus infected in African green monkey Vero cells to EC50 for antiviral activity against wildtype Chikungunya virus 899 infected in African green monkey Vero cells; assay type: functional
[9] = tested on: Caco-2; experiment: Induction of apoptosis in human Caco-2 cells assessed as increase in caspase-3 expression at 6.25 to 100 uM incubated for 72 hrs by Western blot analysis; assay type: toxicity, cell-based; details: caco-2, 72 h, dose 6.25-100 µM
[10] = tested on: Caco-2; experiment: Induction of apoptosis in human Caco-2 cells assessed as increase in PARP expression at 6.25 to 100 uM incubated for 72 hrs by Western blot analysis; assay type: toxicity, cell-based; details: caco-2, 72 h, dose 6.25-100 µM
[11] = tested on: Semliki Forest virus; experiment: Antiviral activity against Semliki forest virus infected in African green monkey Vero cells assessed as reduction in virus induced cell death; assay type: functional, organism-based
[12] = tested on: Sindbis virus; experiment: Antiviral activity against Sindbis virus HRsp infected in African green monkey Vero cells assessed as reduction in virus induced cell death; assay type: functional, organism-based
[13] = tested on: Enterovirus; experiment: Antiviral activity against Human enterovirus 71 infected in African green monkey Vero cells assessed as reduction in virus induced cell death; assay type: functional, organism-based
[14] = tested on: Zika virus; experiment: Antiviral activity against Zika virus infected in African green monkey Vero cells assessed as reduction in virus induced cell death; assay type: functional, organism-based

CCNc1cc(C)nc(N2CCN(C(=O)c3ccc(I)cc3)CC2)n1
EC50 [1]: 2900 nM | CC50 at 120 h [2]: > 100 µM | selectivity ratio [3]: > 34 | half-life [4]: > 60 min | solubility [5]: 116 µM (≈ 52.4 µg/mL)

CCNc1nc(C)cc(N2CCN(C(=O)c3ccc([N+](=O)[O-])cc3Cl)CC2)n1
Activity [6]: Non-Toxic | EC50 [1]: > 780 nM | CC50 at 120 h [2]: > 100 µM | half-life [4]: > 60 min | solubility [5]: 111 µM (≈ 44.9 µg/mL) | Activity [7]: Dose-Dependent Effect | Ratio EC50 [8]: 15.1 | Activity [9]: Non-Toxic | Activity [10]: Non-Toxic

CCNc1nc(C)cc(N2CCN(C(=O)c3cc(Cl)cc(Cl)c3)CC2)n1
Activity [6]: Non-Toxic | EC50 [1]: 470 nM | CC50 at 120 h [2]: 80 µM | selectivity ratio [3]: 173 | half-life [4]: > 60 min | solubility [5]: 108 µM (≈ 42.6 µg/mL) | Activity [7]: Dose-Dependent Effect | Ratio EC50 [8]: 9.7 | Activity [9]: Non-Toxic | Activity [10]: Non-Toxic

CCNc1ccnc(N2CCN(C(=O)c3ccc(F)cc3)CC2)n1
EC50 [1]: 3900 nM | CC50 at 120 h [2]: 183 µM | selectivity ratio [3]: 47 | half-life [4]: > 60 min | solubility [5]: > 120 µM

Cc1cc(N2CCN(C(=O)c3ccc(Br)cc3)CC2)nc(N(C)C)n1
EC50 [1]: 6600 nM | CC50 at 120 h [2]: > 100 µM | selectivity ratio [3]: > 15 | half-life [4]: > 60 min | solubility [5]: > 120 µM

CCNc1nc(C)cc(N2CCN(C(=O)c3ccc(Cl)c(Cl)c3)CC2)n1
Activity [6]: Non-Toxic | EC50 [1]: 570 nM | CC50 at 120 h [2]: 46 µM | selectivity ratio [3]: 81 | half-life [4]: > 60 min | solubility [5]: 111 µM (≈ 43.8 µg/mL) | Activity [9]: Non-Toxic | Activity [10]: Non-Toxic

Cc1cc(N2CCN(C(=O)c3ccc(Cl)cc3)CC2)nc(NC(C)C)n1
EC50 [1]: 18000 nM | CC50 at 120 h [2]: 46 µM | selectivity ratio [3]: 2.6 | half-life [4]: > 60 min | solubility [5]: 115 µM (≈ 43 µg/mL)

CCNc1cc(C)nc(NC2CCN(C(=O)c3cc(Cl)cc(Cl)c3)CC2)n1
EC50 [1]: 12000 nM | CC50 at 120 h [2]: 25 µM | selectivity ratio [3]: 2.02 | half-life [4]: 30 min | solubility [5]: 94 µM (≈ 38.4 µg/mL)

CCNc1cc(N2CCN(S(=O)(=O)c3ccc(Cl)cc3)CC2)ncn1
EC50 [1]: 15900 nM | CC50 at 120 h [2]: 44 µM | selectivity ratio [3]: 2.7 | half-life [4]: > 60 min | solubility [5]: 95 µM (≈ 36.3 µg/mL)

CCNc1nc(C)cc(N2CCN(C(=O)c3ccc(C)cc3)CC2)n1
EC50 [1]: 2400 nM | CC50 at 120 h [2]: 203 µM | selectivity ratio [3]: 84 | half-life [4]: > 60 min | solubility [5]: > 120 µM

CCNc1nc(C)cc(N2CCN(C(=O)c3cccc(C(F)(F)F)c3)CC2)n1
EC50 [1]: 1300 nM | CC50 at 120 h [2]: 80 µM | selectivity ratio [3]: 60 | half-life [4]: > 60 min | solubility [5]: > 120 µM

CCNc1nc(C)cc(N2CCN(C(=O)c3ccc(F)cc3)CC2)n1
Activity [6]: Non-Toxic | EC50 [1]: 1520 nM | CC50 at 120 h [2]: 165 µM | selectivity ratio [3]: 109 | half-life [4]: > 60 min | solubility [5]: > 120 µM | Activity [11]: inactive | Activity [12]: inactive | Activity [13]: inactive | Activity [14]: inactive | Activity [9]: Non-Toxic | Activity [10]: Non-Toxic

CCNc1nc(C)cc(N2CCN(C(=O)c3ccc(C)c(C)c3)CC2)n1
EC50 [1]: 950 nM | CC50 at 120 h [2]: 65 µM | selectivity ratio [3]: 68 | half-life [4]: > 60 min | solubility [5]: 118 µM (≈ 41.7 µg/mL)

Cc1cc(N(C)C)nc(N2CCN(C(=O)c3ccc(Br)cc3)CC2)n1
EC50 [1]: 13000 nM | CC50 at 120 h [2]: 76 µM | selectivity ratio [3]: 6.02 | half-life [4]: 29 min | solubility [5]: 114 µM (≈ 46.1 µg/mL)

CCNc1nc(C)cc(N2CCN(C(=O)c3ccc(I)cc3)CC2)n1
Activity [6]: Non-Toxic | EC50 [1]: 700 nM | CC50 at 120 h [2]: 58 µM | selectivity ratio [3]: 82 | half-life [4]: > 60 min | solubility [5]: 112 µM (≈ 50.5 µg/mL) | Activity [9]: Non-Toxic | Activity [10]: Non-Toxic

CCNc1nc(C)cc(N2CCN(C(=O)c3ccc(Cl)c([N+](=O)[O-])c3)CC2)n1
EC50 [1]: 980 nM | CC50 at 120 h [2]: > 20 µM | selectivity ratio [3]: > 20 | half-life [4]: > 60 min | solubility [5]: > 120 µM

CCCC(=O)N1CCN(c2nc(C)cc(NCC)n2)CC1
EC50 [1]: 67000 nM | solubility [5]: > 120 µM | Activity [11]: inactive | Activity [12]: inactive | Activity [13]: inactive | Activity [14]: inactive

CCNc1nc(C)cc(N2CCN(C(=O)c3ccc(Cl)c(C(F)(F)F)c3)CC2)n1
EC50 [1]: 1900 nM | CC50 at 120 h [2]: > 20 µM | selectivity ratio [3]: > 11 | half-life [4]: > 60 min | solubility [5]: 101 µM (≈ 43.2 µg/mL)
